Data on five molecules can be found in US20160136295A1, “BIOMARKERS FOR TREATMENT WITH ANTI-TUBULIN CHEMOTHERAPEUTIC COMPOUNDS” (GENENTECH, INC., priority 2012, published 2016).

One test relates to Mcl-1. Briefly: Mcl-1 protein level / degradation in mitotic arrest (western blot of synchronized cells). Format: cell-based, human. The conditions noted are these: HeLa released into paclitaxel; for maintenance of mitotic arrest (cdc27 phosphorylation): CGP74514A 2 μM or roscovitine 2.5 μM; for Mcl-1 degradation in mitotic arrest: CGP74514A 2 μM, FR180204 2 μM, SP600125 25 μM, SB203580 2 μM added on entry into mitotic arrest. Here is the method:
(§1) The viability of cancer cell lines, and MEFs in which genes encoding IAPs had been knocked out, was analysed by using the CellTiter-Glo Luminescent Cell Viability Assay® (Promega). Cells were treated in triplicate with anti-tubulin agents for the indicated times, using dimethylsulphoxide treatment as a control. The viability of BCL2-family-member-null MEFs was analysed by propidium iodide staining, as described previously (Chen, L. et al. (2005) Molecular cell 17:393-403), after treatment with anti-tubulin agents for 48 h. Cell synchronization was achieved by culture either in serum-free medium for 12-16 h or in medium containing 2 mM thymidine for 18-24 h, release from the thymidine block with three washes in PBS, followed by culture for 8-12 h in complete growth media (compositions are described in the Supplementary Information). Cells then underwent a second thymidine block for 16-20 h, three further washes in PBS and release into complete medium containing the indicated reagents. To block MCL1 degradation, […] MG132 was added as cells entered mitotic arrest, as assessed by visual inspection. See the Examples for full methods.
(§2) Western blotting was performed essentially as described (Wertz, I. E. et al. (2004) Science (New York, N.Y 303:1371-1374). In brief, cells were lysed in corrected FLAG elution buffer (CFEB) (19.17 mM Tris (pH 7.5), 916.7 μM MgCl2, 92.5 mM NaCl and 0.1% Triton X-100) with protease and phosphatase inhibitors; in some cases 6 M urea was added. Cleared lysates were quantitated and equal amounts of proteins were reduced, alkylated, separated by SDS-PAGE, and transferred onto PVDF membranes (Invitrogen) following standard procedures. Western blotting was performed as recommended by the respective antibody manufacturers. Patient tissue and xenograft samples were lysed in 5× volume of CFEB with protease inhibitors using Fast prep 24 (MP Biologicals). Tissue lysates were cleared and 40 μg total protein was prepared for western blotting analysis as described above. Immunoprecipitations were performed with the indicated antibodies as described (Willis, S. N. et al. (2007) Science (New York, N.Y 315:856-859; Wertz, I. E. et al. (2004) Science (New York, N.Y 303:1371-1374). PP2A activity was performed on PP2A or Mcl-1 immunoprecipitates as recommended by the manufacturer (Upstate)
A general note: In western blotting, separated proteins are transferred to a membrane and probed.

Another test has as its system myc-Mcl-1 / FLAG-FBW7. Kind of test: Recruitment of myc-Mcl-1 to FLAG-FBW7 in mitotic arrest (immunoprecipitation, HeLa cells). Format: cell-based, human. The conditions noted are these: HeLa released into paclitaxel; agent 1 hour then 3 hour 25 μM MG-132; SP600125 25 μM, SB203580 2.65 μM, CGP74514A, roscovitine 2.5 μM. Here is the method: The indicated constructs were expressed in HeLa cells with or without scramble or cdc20 RNAi, and then synchronized and released into paclitaxel. […] Cells were subsequently collected and processed as indicated.
as §2

Test [1] concerns Granta-519, HCT-116 and HeLa cells. Kind of test: Mitotic arrest and Mcl-1 degradation with MMAE (FIG. 5). In kind it is cell-based.
For the next test, the system named is HCT116 cells. Kind of test: Live time-lapse imaging of mitotic fate. In kind it is cell-based, human. Here is the method: HCT116 parental or FBW7−/− cells expressing shLacZ or shMcl-1 were plated at 15,000-30,000 cells per well in 96-well μ-plates (ibidi GmbH) and infected with GFP-H2B baculovirus (Invitrogen) 24 hours prior to adding paclitaxel or vincristine. Cells were imaged live at 37° C. with 5% CO2 using a Nikon TiE® microscope with a Cool Snap® CCD camera (Roper Scientific) and a Plan Apo VC 20× 0.75 NA objective. Three images with 6 μm z-steps were acquired for each position every 10 minutes for 43 hours. Mitotic fate was analyzed manually using NIS-Elements software (Nikon) and numerical data was complied and statistically analyzed using Excel (Microsoft). Fifty mitotic cells were analyzed for each condition and p-values were calculated for the change in the number of cells that exited mitosis or entered apoptosis using the one-tailed Fisher's exact test.

In test [2] the test system is FBW7-WT, FBW7−/− or FBW7 mutant colon cancer cell lines (HCT116, DLD1). Kind of test: Cell viability of colon cancer cell lines by FBW7 status (CellTiter-Glo). In kind it is cell-based, human. The following applies: 48 hours. Here is the method: as §1
were synthesized by Ambion and experiments were performed as described (Huang, H. C., et al (2009) Cancer cell 16:347-358). For viability experiments using stable cell lines transfected with doxycycline-inducible shRNAs to LacZ or Mcl-1 ORF, cells were plated in 10 cm2 plates with 0.2 μg/mL doxycycline for two days. On the third day, cells were plated in to 96-well plates at 5×10^3 per well for viability assays as described above. […] For western blot analysis, cells were harvested at indicated time points and processed as described above.
(In general: ATP-based viability assays read luminescence as a measure of living cells.)

The subject of test [3] is murine embryonic fibroblasts (MEFs). Briefly: Viability of BCL2-family-member-null MEFs by propidium iodide staining after anti-tubulin agents. In kind it is cell-based. The following applies: 48 hours. Here is the method: as §1

SMILES strings stand for the structures. Square brackets hold non-standard residues; d marks the D form. Peptide text beside a SMILES is read from it. * marks the point of attachment. Dolaproine = CO[C@@H]([C@@H]1CCCN1)[C@@H](C)C(=O)O; Dil = CC[C@H](C)[C@H](NC)[C@@H](CC(=O)O)OC; X1 = C[C@@H](N*)[C@@H](O)c1ccccc1; NMeV = CN[C@H](C(=O)O)C(C)C

For `CCn1cnc2c(Nc3cccc(Cl)c3)nc(N[C@@H]3CCCC[C@@H]3N)nc21` [CGP74514A], in the test with Mcl-1, the “maintenance of mitotic arrest (cdc27 phosphorylation)” value is given as “drives cells out of mitotic arrest” and the “Mcl-1 degradation in mitotic arrest” value is given as “attenuate Mcl-1 degradation”. Also, the “recruitment of myc-Mcl-1 to FLAG-FBW7 in mitotic arrest” value (“recruitment of myc-Mcl-1 to FLAG-FBW7” below) with myc-Mcl-1 / FLAG-FBW7 is “attenuates recruitment of myc-Mcl-1 to FLAG-FBW7”.

Turning to `CC[C@H](C)[C@@H]([C@@H](CC(=O)N1CCC[C@H]1[C@H](OC)[C@@H](C)C(=O)N[C@H](C)[C@@H](O)c1ccccc1)OC)N(C)C(=O)[C@@H](NC(=O)[C@@H](NC)C(C)C)C(C)C` [MMAE, (S)—N-((3R,4S,5S)-1-((S)-2-((1R,2R)-3-(((1S,2R)-1-hydroxy-1-phenylpropan-2-yl)amino)-1-methoxy-2-methyl-3-oxopropyl)pyrrolidin-1-yl)-3-methoxy-5-methyl-1-oxoheptan-4-yl)-N,3-dimethyl-2-((S)-3-methyl-2-(methylamino)butanamido)butanamide] (H-[NMeV]V[Dil][Dolaproine]-X1), the “mitotic arrest (phospho-cdc27)” value in test [1] is given as “promotes mitotic arrest”. In addition, the Mcl-1 degradation result in test [1] (subsequent to mitotic arrest) was “Mcl-1 degradation”.

Regarding `C[S+]([O-])c1ccc(-c2nc(-c3ccncc3)c(-c3ccc(F)cc3)[nH]2)cc1` (stereo not drawn) [SB203580], the “Mcl-1 degradation in mitotic arrest” value with Mcl-1 is given as “attenuate Mcl-1 degradation”. For the same molecule, the “recruitment of myc-Mcl-1 to FLAG-FBW7” value with myc-Mcl-1 / FLAG-FBW7 is reported as “attenuates recruitment of myc-Mcl-1 to FLAG-FBW7”.

As to `CC[C@H](CO)Nc1nc(NCc2ccccc2)c2ncn(C(C)C)c2n1` [roscovitine], the “maintenance of mitotic arrest (cdc27 phosphorylation)” value in the test with Mcl-1 is “drives cells out of mitotic arrest”. In the test on myc-Mcl-1 / FLAG-FBW7, the “recruitment of myc-Mcl-1 to FLAG-FBW7” value is on record as “attenuates recruitment of myc-Mcl-1 to FLAG-FBW7”.

`CC[C@]1(O)C[C@H]2CN(CCc3c([nH]c4ccccc34)[C@@](C(=O)OC)(c3cc4c(cc3OC)N(C=O)[C@H]3[C@@](O)(C(=O)OC)[C@H](OC(C)=O)[C@]5(CC)C=CCN6CC[C@]43[C@@H]65)C2)C1` [vincristine, 22-Oxovincaleukoblastine]: in the test on HCT116 cells (FBW7-null cells with Mcl-1 shRNA vs control shRNA), the “drug-induced apoptosis upon decreasing Mcl-1 protein levels” value is “enhanced”. Moreover, in the test with HCT116 cells (FBW7-null vs FBW7-wild-type cells), the “exit from drug-induced mitotic arrest (mitotic slippage)” value was “more readily”. Besides, in test [2] (FBW7-null HCT116 cells, doxycycline-inducible Mcl-1 shRNA), the “sensitivity to drug-induced death upon reducing Mcl-1 protein” value was “restored their sensitivity”. Besides, the “resistance to drug-induced cell death” value in test [2] (FBW7-null cell lines relative to wild-type cells) is recorded as “more resistant”. Further, the sensitivity to killing entry is “not BCL-X enhances sensitivity” in test [3] (BCL-X−/− MEFs vs wild-type) and “enhanced sensitivity” in test [3] (MCL-1−/− MEFs vs wild-type).
